Reference: patent publication US4954518A, “4H-1-benzopyran-4-one derivative or its salt, process for producing the same and pharmaceutical composition comprising the same as active ingredient” (Toyama Chemical Company, Ltd., priority 1987, dated 1990)
Like-named read-outs stand apart in the source and are kept apart here.

What was measured:
[1] = system: Carrageenin-Induced Paw Edema; test: Carrageenin-induced paw edema in rats (inhibitory activity); format: in vivo, male rats of Donryu strain; conditions: Rattus norvegicus, read-out: Inhibitory effect (carrageenin-induced paw edema)
Procedure: (1) Carrageenin-induced paw edema
This inhibitory activity was tested according to the method of C. A. Winter et al. [Proceedings of the Society for Experimental Biology and Medicine, vol.
After one hour, 0.1 ml of a 1% carrageenin was injected into the subplantar region of the left hind paw. Three hours after carrageenin injection, the paw volume was measured plethysmographically and the percent swelling was determined from the volume before injection and the inhibitory percentage was calculated according to the following equation: [formula]

Adjuvant Arthritis = test: Adjuvant-induced arthritis in rats (inhibitory activity); format: in vivo, male rats of Westar-Lewis strain; conditions: for inhibition in vivo at 3 mg/kg / inhibition in vivo at 10 mg/kg: Rattus norvegicus, read-out: Inhibitory effect (adjuvant arthritis, Table 4); for Inhibitory effect (adjuvant arthritis, Table 3): seven continuous days
Procedure: (2) Adjuvant-induced arthritis
This inhibitory activity was tested according to the method of E. M. Glenn [American Journal of Veterinary Research, vol. 27, p. 339 (1966)].
To male rats of Westar-Lewis strain (body weight: 190-230 g, 5 rats per group) was intradermally injected 0.1 ml of a suspension of heat-killed Mycobacterium tuberculosis in liquid paraffin at a concentration of 6 mg/ml as the adjuvant into the root of tail. Eighteen days after the adjuvant injection, the rats were classified based on the volume of both hind paws, and then a suspension of the test compound in 0.5% (w/v) aqueous carboxymethylcellulose solution was orally administered to the classified rats in a proportion of 1 ml/100 g of body weight once a day for seven continuous days (see Table 3) or four continuous days (see Table 4). On the day following the last administration, the volume of both hind paws was measured, and in the same manner as in (1) above, the inhibitory effect was determined. Incidentally, the result is shown in Tables 3 and 4 in terms of the inhibitory effect indicated below based on inhibition (x%).

mice = test: Oral acute toxicity in mice; format: in vivo, ICR strain male mice; conditions: for behavioural changes: mouse, in vivo, po, 500 mg/kg; for death cases: oral, dose of 500 mg/kg, observed over one week
Procedure: (§1) ICR strain male mice (body weight: 20-25 g, […], 3 mice per group) were tested for oral acute toxicity. A test compound suspended in 0.5% (w/v) aqueous carboxymethylcellulose solution was orally administered to the mice in a proportion of 0.2 ml/10 g of body weight. After the administration, general symptom was observed over one week.

[2] = Ulcerogenic effect in rats; parameters: species or system male rats of Wister strain; conditions: rat, in vivo
Procedure: To male rats of Wister strain (body weight: 180-230 g, 7 to 8 rats per group) which had been fasted for 24 hours with free access to water was orally administered a test compound suspended in 0.5% (w/v) aqueous carboxymethylcellulose solution in a proportion of 1 ml/100 g of body weight. The rats were allowed to stand under abstinence from food and water for 24 hours, and thereafter, sacrificed by dislocation of cervical vertebrae, after which the stomach was removed and fixed in 1% (v/v) formaline solution for 30 minutes. This stomach was split along the greater curvature and the length (mm) of the erosion and ulcer formed on the gastric mucosa was measured by a stereomicroscope, and the total sum of the lengths (lmm) was determined, from which ulcerogenic index was assessed based on the following arbitrary scale:
Subsequently, UD50 (mg/kg) which is the dose of the test compound which induces ulcerogenic index 5 was determined on each test compound.
*Rats were allowed to stand for 5 hours under abstinence from food and […]

[3] = Oral acute toxicity in mice; format: in vivo, ICR strain male mice; conditions: mouse, in vivo; oral, mice
Procedure: as §1

[4] = 10 mg/kg oral, 1 h before carrageenin, paw volume 3 h after
[5] = 3 mg/kg oral once a day, four continuous days
[6] = 10 mg/kg oral once a day, four continuous days

## CSc1coc2cc(NS(C)(=O)=O)c(Oc3ccccc3)cc2c1=O [Compound 4, 7-methylsulfonylamino-3-methylthio-6-phenoxy-4H-1-benzopyran-4-one]
[1]; [4]
  inhibition in vivo at 10 mg/kg: 20 to 30%
Adjuvant Arthritis; [5]
  inhibition in vivo at 3 mg/kg: 20 to 30%

## CS(=O)(=O)Nc1cc2occ(NC=O)c(=O)c2cc1Oc1ccccc1F [Compound 34]
mice
  behavioural changes: no behavioural changes were observed
  death cases: no death case was found
[2]; po
  TD50 at 24 h: > 500 mg/kg
[1]; [4]
  inhibition in vivo at 10 mg/kg: > 40%
Adjuvant Arthritis; [5]
  inhibition in vivo at 3 mg/kg: 30 to 40%

## CS(=O)(=O)Nc1cc2occc(=O)c2cc1Oc1ccccc1 [Compound 1, 7-methylsulfonylamino-6-phenoxy4H-1-benzopyran-4-one]
mice
  behavioural changes: no behavioural changes were observed
  death cases: no death case was found
[2]; po
  TD50 at 5 h: > 300 mg/kg
[1]; [4]
  inhibition in vivo at 10 mg/kg: 30 to 40%
Adjuvant Arthritis; 10 mg/kg oral once a day
  Inhibitory effect (adjuvant arthritis, Table 3): +++ (30 ≤ × < 40)

## COc1ccc2c(c1)c(CC(=O)O)c(C)n2C(=O)c1ccc(Cl)cc1 [IM, indomethacin, reference compound]
[3]
  LD50 at 168 h: 25 mg/kg
[2]; oral, 24 hours under abstinence from food and water, read-out: UD50 (dose which induces ulcerogenic index 5)
  TD50 at 24 h: 4.3 mg/kg
[1]; po, 3 h
  inhibition in vivo at 10 mg/kg: > 40%
Adjuvant Arthritis; 1 mg/kg oral once a day
  Inhibitory effect (adjuvant arthritis, Table 3): +++ (30 ≤ × < 40)
Adjuvant Arthritis; po
  inhibition in vivo at 3 mg/kg: 30 to 40%

## CC(=O)N(c1cc2occc(=O)c2cc1Oc1ccccc1)S(C)(=O)=O [Compound 96]
[1]; [4]
  inhibition in vivo at 10 mg/kg: 30 to 40%
Adjuvant Arthritis; 10 mg/kg oral once a day
  Inhibitory effect (adjuvant arthritis, Table 3): ++++ (× ≥ 40)

## CS(=O)(=O)Nc1cc2occc(=O)c2cc1Oc1ccc(F)cc1F [Compound 94, 6-(2,4-difluorophenoxy)-7-methylsulfonylamino-4H-1-benzopyran-4-one]
mice
  behavioural changes: no behavioural changes were observed
  death cases: no death case was found
[2]; po
  TD50 at 5 h: > 300 mg/kg
[1]; [4]
  inhibition in vivo at 10 mg/kg: 30 to 40%
Adjuvant Arthritis; 10 mg/kg oral once a day
  Inhibitory effect (adjuvant arthritis, Table 3): ++++ (× ≥ 40)

## Cc1cc(=O)c2cc(Oc3ccccc3)c(NS(C)(=O)=O)cc2o1 [Compound 9]
[1]; [4]
  inhibition in vivo at 10 mg/kg: 20 to 30%
Adjuvant Arthritis; 10 mg/kg oral once a day
  Inhibitory effect (adjuvant arthritis, Table 3): ++++ (× ≥ 40)

## CS(=O)(=O)Nc1cc2occc(=O)c2cc1Nc1ccccc1 [Compound 12]
[1]; [4]
  inhibition in vivo at 10 mg/kg: 30 to 40%
Adjuvant Arthritis; [5]
  inhibition in vivo at 3 mg/kg: 30 to 40%

## CN(C=O)c1coc2cc(NS(C)(=O)=O)c(Oc3ccccc3)cc2c1=O [Compound 100]
[1]; [4]
  inhibition in vivo at 10 mg/kg: > 40%
Adjuvant Arthritis; [6]
  inhibition in vivo at 10 mg/kg: 20 to 30%

## CS(=O)(=O)Nc1cc2occ(NC=O)c(=O)c2cc1Oc1ccc(F)cc1F [Compound 39]
mice
  behavioural changes: no behavioural changes were observed
  death cases: no death case was found
[2]; po
  TD50 at 24 h: > 500 mg/kg
[1]; [4]
  inhibition in vivo at 10 mg/kg: > 40%
Adjuvant Arthritis; [5]
  inhibition in vivo at 3 mg/kg: 20 to 30%

## CS(=O)(=O)Nc1cc2occ(C(N)=O)c(=O)c2cc1Oc1ccccc1 [Compound 122]
[1]; [4]
  inhibition in vivo at 10 mg/kg: 20 to 30%
Adjuvant Arthritis; [5]
  inhibition in vivo at 3 mg/kg: 20 to 30%

## CS(=O)(=O)Nc1cc2occ(NC=O)c(=O)c2cc1Oc1ccccc1 [Compound 99]
mice
  behavioural changes: no behavioural changes were observed
  death cases: no death case was found
[2]; po
  TD50 at 24 h: > 500 mg/kg
[1]; [4]
  inhibition in vivo at 10 mg/kg: > 40%
Adjuvant Arthritis; [5]
  inhibition in vivo at 3 mg/kg: 20 to 30%

## CNc1coc2cc(NS(C)(=O)=O)c(Oc3ccccc3)cc2c1=O [Compound 101]
[1]; [4]
  inhibition in vivo at 10 mg/kg: 30 to 40%
Adjuvant Arthritis; [6]
  inhibition in vivo at 10 mg/kg: 20 to 30%

## O=CNc1coc2cc(NS(=O)(=O)CCl)c(Oc3ccccc3)cc2c1=O [Compound 40]
[1]; [4]
  inhibition in vivo at 10 mg/kg: > 40%
Adjuvant Arthritis; [5]
  inhibition in vivo at 3 mg/kg: 20 to 30%

## Cc1ccccc1Oc1cc2c(=O)c(NC=O)coc2cc1NS(C)(=O)=O [Compound 46]
mice
  behavioural changes: no behavioural changes were observed
  death cases: no death case was found
[2]; po
  TD50 at 24 h: > 500 mg/kg
[1]; [4]
  inhibition in vivo at 10 mg/kg: > 40%
Adjuvant Arthritis; [5]
  inhibition in vivo at 3 mg/kg: 20 to 30%

## CS(=O)(=O)Nc1cc2occ(NC=O)c(=O)c2cc1Sc1ccccc1 [Compound 88]
[1]; [4]
  inhibition in vivo at 10 mg/kg: 30 to 40%
Adjuvant Arthritis; [6]
  inhibition in vivo at 10 mg/kg: 20 to 30%

## Cc1oc2cc(NS(C)(=O)=O)c(Oc3ccccc3)cc2c(=O)c1C(N)=O [Compound 61]
[1]; [4]
  inhibition in vivo at 10 mg/kg: 15 to 20%
Adjuvant Arthritis; [6]
  inhibition in vivo at 10 mg/kg: 30 to 40%
